From ChEMBL document CHEMBL4507318, “Data for DCP probe BAY-985” (2021)

Legend:
[1] = target: Casein kinase II subunit alpha (Homo sapiens) (UniProt P68400)
[2] = target: Serine/threonine-protein kinase BRSK2 (Homo sapiens) (UniProt Q8IWQ3)
[3] = target: Tyrosine-protein kinase BTK (Homo sapiens) (UniProt Q06187)
[4] = target: Serine/threonine-protein kinase STK11 (Homo sapiens) (UniProt Q15831)
[5] = target: Ankyrin repeat and protein kinase domain-containing protein 1 (Homo sapiens) (UniProt Q8NFD2)
Ankyrin repeat and protein kinase domain-containing protein 1 (Homo sapiens), sequence (Q8NFD2 whole entry, the tested form may be a part): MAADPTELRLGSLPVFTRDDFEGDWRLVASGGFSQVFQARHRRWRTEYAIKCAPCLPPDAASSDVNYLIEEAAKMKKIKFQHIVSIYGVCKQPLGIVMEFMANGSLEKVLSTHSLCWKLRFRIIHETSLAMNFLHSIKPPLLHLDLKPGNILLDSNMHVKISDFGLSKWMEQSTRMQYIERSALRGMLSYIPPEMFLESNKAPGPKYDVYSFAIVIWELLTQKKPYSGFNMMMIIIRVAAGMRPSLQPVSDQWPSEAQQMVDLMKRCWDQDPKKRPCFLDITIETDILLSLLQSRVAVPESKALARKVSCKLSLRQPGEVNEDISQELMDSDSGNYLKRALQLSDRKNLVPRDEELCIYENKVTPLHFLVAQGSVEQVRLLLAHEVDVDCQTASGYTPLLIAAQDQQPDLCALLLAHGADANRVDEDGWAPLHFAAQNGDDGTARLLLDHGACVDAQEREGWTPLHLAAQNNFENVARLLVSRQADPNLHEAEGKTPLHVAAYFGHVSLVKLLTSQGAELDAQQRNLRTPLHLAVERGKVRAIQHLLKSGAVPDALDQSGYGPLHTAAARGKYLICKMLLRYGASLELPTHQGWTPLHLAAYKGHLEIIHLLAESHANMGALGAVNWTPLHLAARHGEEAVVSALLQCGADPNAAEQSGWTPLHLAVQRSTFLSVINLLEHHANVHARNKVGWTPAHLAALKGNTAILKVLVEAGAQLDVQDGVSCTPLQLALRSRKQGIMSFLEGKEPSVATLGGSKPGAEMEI

[6] = target: Mitogen-activated protein kinase 13 (Homo sapiens) (UniProt O15264)
[7] = target: Muscarinic acetylcholine receptor M4 (Homo sapiens) (UniProt P08173); details: Compound concentration 10.0 uM
[8] = target: Rhodopsin kinase GRK7 (Homo sapiens) (UniProt Q8WTQ7)
Rhodopsin kinase GRK7 (Homo sapiens), sequence (Q8WTQ7 whole entry): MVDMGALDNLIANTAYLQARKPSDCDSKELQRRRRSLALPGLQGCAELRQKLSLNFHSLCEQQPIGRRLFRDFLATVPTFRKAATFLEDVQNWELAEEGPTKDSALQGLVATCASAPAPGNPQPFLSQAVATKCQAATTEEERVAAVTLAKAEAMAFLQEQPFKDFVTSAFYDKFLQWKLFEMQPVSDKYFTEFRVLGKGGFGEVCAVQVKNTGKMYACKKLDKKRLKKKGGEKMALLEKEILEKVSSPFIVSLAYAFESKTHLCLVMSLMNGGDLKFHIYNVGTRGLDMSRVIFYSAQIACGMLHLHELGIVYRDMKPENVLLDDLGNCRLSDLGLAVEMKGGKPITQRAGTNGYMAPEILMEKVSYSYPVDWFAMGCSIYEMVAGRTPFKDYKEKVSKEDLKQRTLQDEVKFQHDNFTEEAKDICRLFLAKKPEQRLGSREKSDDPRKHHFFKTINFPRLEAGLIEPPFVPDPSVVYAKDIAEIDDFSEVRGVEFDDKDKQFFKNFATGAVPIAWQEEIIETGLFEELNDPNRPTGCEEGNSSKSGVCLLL

[9] = target: Tyrosine-protein kinase Lck (Homo sapiens) (UniProt P06239)
[10] = target: RAF proto-oncogene serine/threonine-protein kinase (Homo sapiens) (UniProt P04049)
[11] = target: Mitogen-activated protein kinase 15 (Homo sapiens) (UniProt Q8TD08)
[12] = target: Homeodomain-interacting protein kinase 2 (Homo sapiens) (UniProt Q9H2X6)
[13] = target: Mitogen-activated protein kinase kinase kinase 20 (Homo sapiens) (UniProt Q9NYL2)
[14] = target: Serine/threonine-protein kinase 3 (Homo sapiens) (UniProt Q13188)
[15] = test system: Mast/stem cell growth factor receptor Kit (Homo sapiens), P10721 [D816H]
Mast/stem cell growth factor receptor Kit (Homo sapiens), P10721 [D816H], sequence (P10721 whole entry D816H): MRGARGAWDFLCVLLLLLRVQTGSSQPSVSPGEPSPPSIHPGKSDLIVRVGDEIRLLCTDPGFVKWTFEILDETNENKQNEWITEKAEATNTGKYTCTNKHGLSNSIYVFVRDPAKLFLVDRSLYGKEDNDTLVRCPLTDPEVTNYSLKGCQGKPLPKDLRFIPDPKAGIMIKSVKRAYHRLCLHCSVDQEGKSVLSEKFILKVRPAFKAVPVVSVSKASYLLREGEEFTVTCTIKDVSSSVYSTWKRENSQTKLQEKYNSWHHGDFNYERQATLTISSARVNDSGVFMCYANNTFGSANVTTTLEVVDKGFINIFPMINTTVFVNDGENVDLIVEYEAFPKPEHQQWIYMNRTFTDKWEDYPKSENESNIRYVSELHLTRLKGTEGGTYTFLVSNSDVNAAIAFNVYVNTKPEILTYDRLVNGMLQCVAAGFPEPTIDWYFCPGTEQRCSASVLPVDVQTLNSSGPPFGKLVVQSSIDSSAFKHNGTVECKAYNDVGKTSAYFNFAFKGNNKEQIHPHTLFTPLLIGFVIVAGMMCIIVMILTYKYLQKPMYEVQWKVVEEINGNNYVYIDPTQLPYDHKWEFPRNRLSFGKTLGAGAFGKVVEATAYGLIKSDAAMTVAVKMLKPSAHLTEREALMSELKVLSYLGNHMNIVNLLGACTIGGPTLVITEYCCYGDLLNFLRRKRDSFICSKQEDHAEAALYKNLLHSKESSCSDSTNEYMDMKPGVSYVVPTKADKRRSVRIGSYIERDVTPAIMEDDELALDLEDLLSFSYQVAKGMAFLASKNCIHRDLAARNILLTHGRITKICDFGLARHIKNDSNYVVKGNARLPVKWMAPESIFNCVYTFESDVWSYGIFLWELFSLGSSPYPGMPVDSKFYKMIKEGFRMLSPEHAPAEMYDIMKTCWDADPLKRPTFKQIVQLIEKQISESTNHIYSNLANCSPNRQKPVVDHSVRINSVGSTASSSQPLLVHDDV

[16] = target: Calcium/calmodulin-dependent protein kinase type II subunit alpha (Homo sapiens) (UniProt Q9UQM7)
[17] = target: Homeodomain-interacting protein kinase 3 (Homo sapiens) (UniProt Q9H422)
[18] = target: Mitogen-activated protein kinase 10 (Homo sapiens) (UniProt P53779)
[19] = target: Serine/threonine-protein kinase SIK1 (Homo sapiens) (UniProt P57059)
[20] = target: Casein kinase II subunit alpha' (Homo sapiens) (UniProt P19784)
[21] = test system: Epidermal growth factor receptor (Homo sapiens), P00533 [UNDEFINED MUTATION]
Epidermal growth factor receptor (Homo sapiens), P00533 [UNDEFINED MUTATION], sequence (P00533 whole entry, looked up, change not shown): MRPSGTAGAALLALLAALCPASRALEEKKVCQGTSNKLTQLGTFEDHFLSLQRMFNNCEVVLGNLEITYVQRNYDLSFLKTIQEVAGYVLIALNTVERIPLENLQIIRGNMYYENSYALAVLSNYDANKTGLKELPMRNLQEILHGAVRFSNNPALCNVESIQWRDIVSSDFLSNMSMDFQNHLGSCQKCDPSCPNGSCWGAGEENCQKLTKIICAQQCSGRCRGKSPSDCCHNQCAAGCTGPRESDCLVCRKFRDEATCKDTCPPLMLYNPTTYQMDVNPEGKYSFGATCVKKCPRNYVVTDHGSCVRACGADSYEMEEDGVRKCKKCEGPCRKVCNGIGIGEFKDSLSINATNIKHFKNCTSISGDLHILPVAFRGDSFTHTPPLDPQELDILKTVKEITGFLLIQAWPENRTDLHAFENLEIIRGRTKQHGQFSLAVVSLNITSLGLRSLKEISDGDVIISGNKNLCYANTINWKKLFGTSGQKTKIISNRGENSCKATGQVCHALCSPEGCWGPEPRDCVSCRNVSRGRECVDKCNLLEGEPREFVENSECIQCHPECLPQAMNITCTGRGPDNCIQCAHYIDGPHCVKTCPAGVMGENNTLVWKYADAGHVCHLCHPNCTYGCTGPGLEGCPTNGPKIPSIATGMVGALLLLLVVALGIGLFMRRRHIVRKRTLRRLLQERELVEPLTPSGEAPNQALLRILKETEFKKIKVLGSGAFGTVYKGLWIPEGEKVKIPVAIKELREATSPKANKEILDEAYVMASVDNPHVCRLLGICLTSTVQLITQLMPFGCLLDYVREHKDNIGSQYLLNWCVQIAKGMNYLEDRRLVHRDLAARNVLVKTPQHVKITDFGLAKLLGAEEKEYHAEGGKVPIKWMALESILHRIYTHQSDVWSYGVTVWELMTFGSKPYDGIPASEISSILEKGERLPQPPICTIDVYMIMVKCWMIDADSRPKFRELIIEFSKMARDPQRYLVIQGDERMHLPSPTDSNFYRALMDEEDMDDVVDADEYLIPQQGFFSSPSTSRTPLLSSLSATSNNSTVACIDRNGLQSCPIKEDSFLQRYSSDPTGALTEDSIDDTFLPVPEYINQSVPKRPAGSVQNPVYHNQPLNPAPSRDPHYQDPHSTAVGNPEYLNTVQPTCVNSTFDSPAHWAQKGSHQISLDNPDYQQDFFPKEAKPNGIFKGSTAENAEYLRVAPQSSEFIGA

[22] = target: Dual specificity tyrosine-phosphorylation-regulated kinase 1A (Homo sapiens) (UniProt Q13627)
[23] = target: Serine/threonine-protein kinase Nek9 (Homo sapiens) (UniProt Q8TD19)
[24] = target: Muscarinic acetylcholine receptor M1 (Homo sapiens) (UniProt P11229); details: Compound concentration 10.0 uM
Muscarinic acetylcholine receptor M1 (Homo sapiens), sequence (P11229 whole entry): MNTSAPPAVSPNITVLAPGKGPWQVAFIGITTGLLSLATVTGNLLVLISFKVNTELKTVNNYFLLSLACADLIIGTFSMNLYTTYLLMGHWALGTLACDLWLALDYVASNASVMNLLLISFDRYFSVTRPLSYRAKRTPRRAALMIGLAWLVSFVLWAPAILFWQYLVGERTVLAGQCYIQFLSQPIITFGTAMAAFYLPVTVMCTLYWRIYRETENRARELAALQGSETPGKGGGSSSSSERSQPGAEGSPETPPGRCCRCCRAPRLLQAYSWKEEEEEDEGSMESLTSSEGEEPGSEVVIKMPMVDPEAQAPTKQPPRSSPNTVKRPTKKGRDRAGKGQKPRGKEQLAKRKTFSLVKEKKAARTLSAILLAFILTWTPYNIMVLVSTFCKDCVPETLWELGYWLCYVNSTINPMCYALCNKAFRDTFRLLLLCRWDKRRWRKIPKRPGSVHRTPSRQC

[25] = target: Platelet-derived growth factor receptor alpha (Homo sapiens) (UniProt P16234)
[26] = target: Histamine H2 receptor (Homo sapiens) (UniProt P25021); details: Compound concentration 10.0 uM
[27] = test system: Tyrosine-protein kinase ABL1 (Homo sapiens), P00519 [T315I]
[28] = target: 5-hydroxytryptamine receptor 3A (Homo sapiens) (UniProt P46098); details: Compound concentration 10.0 uM
5-hydroxytryptamine receptor 3A (Homo sapiens), sequence (P46098 whole entry): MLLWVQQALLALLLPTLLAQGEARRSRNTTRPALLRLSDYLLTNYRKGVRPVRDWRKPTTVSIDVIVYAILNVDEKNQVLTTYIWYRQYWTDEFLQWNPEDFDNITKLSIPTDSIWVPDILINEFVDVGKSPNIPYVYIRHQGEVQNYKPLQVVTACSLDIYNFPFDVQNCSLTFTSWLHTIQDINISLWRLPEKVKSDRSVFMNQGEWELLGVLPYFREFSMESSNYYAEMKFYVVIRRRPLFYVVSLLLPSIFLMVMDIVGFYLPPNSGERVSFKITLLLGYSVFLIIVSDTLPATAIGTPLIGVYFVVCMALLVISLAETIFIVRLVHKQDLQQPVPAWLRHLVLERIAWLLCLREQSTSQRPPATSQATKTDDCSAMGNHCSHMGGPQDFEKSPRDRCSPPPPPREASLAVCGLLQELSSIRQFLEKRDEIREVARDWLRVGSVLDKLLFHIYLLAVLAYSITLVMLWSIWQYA

[29] = target: 3-phosphoinositide-dependent protein kinase 1 (Homo sapiens) (UniProt O15530)
[30] = target: Non-receptor tyrosine-protein kinase TYK2 (Homo sapiens) (UniProt P29597)
[31] = target: Insulin receptor (Homo sapiens) (UniProt P06213)
Rattus norvegicus = species on record: Rattus norvegicus; details: Compound concentration 10.0 uM
[32] = test system: Proto-oncogene tyrosine-protein kinase receptor Ret (Homo sapiens), P07949 [M918T]
[33] = target: Serine/threonine-protein kinase pim-3 (Homo sapiens) (UniProt Q86V86)
[34] = target: D(1A) dopamine receptor (Homo sapiens) (UniProt P21728); details: Compound concentration 10.0 uM
[35] = target: Platelet-derived growth factor receptor beta (Homo sapiens) (UniProt P09619)
[36] = target: Phosphatidylinositol 4,5-bisphosphate 3-kinase catalytic subunit beta isoform (Homo sapiens) (UniProt P42338)
[37] = target: Casein kinase I isoform alpha-like (Homo sapiens) (UniProt Q8N752)
[38] = target: Serine/threonine-protein kinase 32B (Homo sapiens) (UniProt Q9NY57)
[39] = target: D(1B) dopamine receptor (Homo sapiens) (UniProt P21918); details: Compound concentration 10.0 uM
D(1B) dopamine receptor (Homo sapiens), sequence (P21918 whole entry): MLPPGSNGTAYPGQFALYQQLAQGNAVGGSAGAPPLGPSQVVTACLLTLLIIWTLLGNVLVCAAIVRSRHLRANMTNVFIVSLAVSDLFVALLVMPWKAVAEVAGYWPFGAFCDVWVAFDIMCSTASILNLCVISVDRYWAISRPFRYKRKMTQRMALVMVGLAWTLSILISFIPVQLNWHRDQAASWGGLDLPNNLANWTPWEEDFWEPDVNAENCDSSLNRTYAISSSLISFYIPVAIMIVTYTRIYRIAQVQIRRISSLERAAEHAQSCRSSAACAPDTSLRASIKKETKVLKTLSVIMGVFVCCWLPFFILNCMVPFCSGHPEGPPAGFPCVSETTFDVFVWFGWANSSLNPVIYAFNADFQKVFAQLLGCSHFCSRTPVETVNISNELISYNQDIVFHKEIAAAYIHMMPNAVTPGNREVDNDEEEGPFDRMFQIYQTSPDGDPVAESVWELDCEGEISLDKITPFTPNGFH

[40] = target: Cyclin-dependent kinase 16 (Homo sapiens) (UniProt Q00536)
[41] = target: Dual specificity protein kinase TTK (Homo sapiens) (UniProt P33981)
[42] = target: ALK tyrosine kinase receptor (Homo sapiens) (UniProt Q9UM73)
[43] = target: Cyclin-G-associated kinase (Homo sapiens) (UniProt O14976)
[44] = target: Serine/threonine-protein kinase TBK1 (Homo sapiens) (UniProt Q9UHD2)
[45] = target: cGMP-dependent protein kinase 1 (Homo sapiens) (UniProt Q13976)
[46] = Compound concentration 1000.0 nM
[47] = Compound concentration 100.0 nM

SMILES: CN(C)c1ncnc(-c2ccc3nc(Nc4cc(CN5CCN(C(=O)CC(F)(F)F)CC5)ccn4)[nH]c3c2)c1Cl [BAY-440]
- residual activity [1, 46]: 80%
- residual activity [2, 46]: 100%
- residual activity [3, 46]: 80%
- residual activity [4, 46]: 99%
- residual activity [5, 46]: 57%
- residual activity [6, 46]: 100%
- inhibition [7]: 4.83%
- residual activity [8, 46]: 90%
- residual activity [9, 46]: 100%
- residual activity [10, 46]: 100%
- residual activity [11, 46]: 73%
- residual activity [12, 46]: 86%
- residual activity [13, 46]: 65%
- residual activity [14, 46]: 100%
- residual activity [15, 46]: 75%
- residual activity [16, 46]: 100%
- residual activity [17, 46]: 100%
- residual activity [18, 46]: 51%
- residual activity [19, 46]: 94%
- residual activity [20, 46]: 78%
- residual activity [21, 46]: 100%
- residual activity [22, 46]: 77%
- residual activity [23, 46]: 100%
- inhibition [24]: 32.1%
- residual activity [25, 46]: 61%
- inhibition [26]: 32.6%
- residual activity [27, 46]: 51%
- inhibition [28]: 35.6%
- residual activity [29, 46]: 100%
- residual activity [30, 46]: 77%
- residual activity [31, 46]: 100%
- inhibition (Rattus norvegicus): 13.9%
- residual activity [32, 46]: 100%
- residual activity [33, 46]: 100%
- inhibition [34]: 23%
- residual activity [35, 46]: 100%
- residual activity [36, 46]: 82%
- residual activity [37, 46]: 94%
- residual activity [38, 46]: 100%
- inhibition [39]: -9.93%
- residual activity [40, 46]: 74%
- residual activity [41, 46]: 100%
- residual activity [42, 46]: 75%
- residual activity [43, 46]: 82%
- residual activity [44, 46]: 24%
- residual activity [45, 46]: 94%

SMILES: C[C@H](c1ccnc(Nc2nc3ccc(-c4cc(N(C)C)ncn4)cc3[nH]2)c1)N1CCN(C(=O)CC(F)(F)F)CC1 [BAY-985]
- residual activity [1, 47]: 100%
- residual activity [2, 47]: 100%
- residual activity [3, 47]: 100%
- residual activity [4, 47]: 100%
- residual activity [5, 47]: 99%
- residual activity [6, 47]: 80%
- inhibition [7]: 24.7%
- residual activity [8, 47]: 89%
- residual activity [9, 47]: 100%
- residual activity [10, 47]: 97%
- residual activity [11, 47]: 100%
- residual activity [12, 47]: 100%
- residual activity [13, 47]: 98%
- residual activity [14, 47]: 93%
- residual activity [15, 47]: 82%
- residual activity [16, 47]: 99%
- residual activity [17, 47]: 100%
- residual activity [18, 47]: 81%
- residual activity [19, 47]: 96%
- residual activity [20, 47]: 100%
- residual activity [21, 47]: 89%
- residual activity [22, 47]: 98%
- residual activity [23, 47]: 100%
- inhibition [24]: 15.1%
- residual activity [25, 47]: 99%
- inhibition [26]: 3.55%
- residual activity [27, 47]: 89%
- inhibition [28]: 31.9%
- residual activity [29, 47]: 76%
- residual activity [30, 47]: 100%
- residual activity [31, 47]: 100%
- inhibition (Rattus norvegicus): -2.73%
- residual activity [32, 47]: 86%
- residual activity [33, 47]: 87%
- inhibition [34]: 1.63%
- residual activity [35, 47]: 82%
- residual activity [36, 47]: 100%
- residual activity [37, 47]: 94%
- residual activity [38, 47]: 100%
- inhibition [39]: 10.2%
- residual activity [40, 47]: 100%
- residual activity [41, 47]: 82%
- residual activity [42, 47]: 97%
- residual activity [43, 47]: 95%
- residual activity [44, 47]: 2.4%
- residual activity [45, 47]: 100%
